Experimental data taken from patent US10253002B2, “Compounds and methods of treating infections” (Neoculi Pty Ltd., priority 2013, dated 2019).
In brackets after ≈: the same amount, converted by molar mass. Values belong to the molecule of their own block, whether it stands above or below them.

Key:
MRSA [1] = conditions: within an hour of exposure to a concentration equivalent to the Cmax; McKay et al. (2009); cited from earlier work
VRE = test: Broth microdilution MIC, Example 7 (NCL812 and analogues); assay type: cell-based, Enterococcus spp.
Summary of the method: (§1)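 MICs in μg/ml were read as growth inhibition by eye, checked at 600 nm absorbance against drug-free wells, following CLSI broth microdilution. Strains: two MRSA, two VRE; duplicates, repeated once more when results diverged beyond one dilution step.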

MRSA [2] = test: as above; assay type: cell-based, Staphylococcus aureus
Summary of the method: as §1

Pseudomonas aeruginosa = test: as above; assay type: cell-based; conditions: P. aeruginosa; 24 hours; duplicate lines per compound
[3] = Release from Formulation B, Franz diffusion cells; assay type: physicochemical; conditions: absolute ethanol receptor, 32±1° C., up to 24 hours
Experimental: Franz diffusion cells were utilized to quantify the release rate of NCL 812 and NCL099 from its topical formulations. Five milliliters of absolute ethanol, which was chosen as the desired release medium, was loaded into the receptor chamber. Temperature of the receptor fluid was kept constant, at 32±1° C. using a water jacket. Acetyl cellulose membranes, with pore size of 0.45 μm (Pall Corporation) was selected and placed between donor and receptor chamber. Followed by that, a number of test samples (Formulation B) was loaded into the donor chamber. One milliliter of receptor fluid was collected at regular time intervals of 0.25, 0.50, 0.75, 1, 2, 3, 4, 5, 6, 7, 8 and 24 hours through the sampling port. One milliliter of fresh absolute ethanol was immediately returned to the receptor chamber. UV-HPLC was utilized to analyse the content of the receptor fluids attained.

Escherichia coli = test: Broth microdilution MIC, Example 7 (NCL812 and analogues); assay type: cell-based; conditions: E. coli; 24 hours; duplicate lines per compound
[4] = Bioassay ranking of the analogues tested; conditions: M + R (MRSA and VRE combined)
Staphylococcus aureus = test: Mouse skin wound infection model, topical treatment; assay type: in vivo, mice; conditions: 14 treatments
From the text: Preliminary studies prior to the conduct of the current study established a new method of skin infection arising from a detailed study of the models mentioned above. Briefly, study mice are anaesthetised, a patch of dorsal skin is clipped to reveal the skin and a circular area of skin is removed with a hand held punch, leaving a wound on the dorsum with a central cavity. The wound is infected with a known number of the challenge organism. Approximately four to six hours after infection, the wound is either treated topically with a vehicle formulation or an active formulation. The infected skin wound is retreated every 12 hours for a total of 14 treatments. Mice are humanely euthanased, the area of the original infected wound is dissected and removed and its bacterial content quantified by standard microbiologic tests. In this way, the change in bacterial concentration due to treatment with the active formulation can be readily determined by examining the reduction in bacterial burden compared with the vehicle control. Fresh cultures of bacteria (Staphylococcus aureus) were grown on Sheep Blood Agar at 37° C. for 16-18 hours. A few typical colonies were selected and suspended in 10 ml of Tryptic Soy Broth and incubated overnight in a shaking incubator (240 rpm) at 37° C. The overnight suspension was vortexed and diluted (1:100) in fresh Tryptic soy broth (100 μl [0.1 ml] in 9.9 ml broth). The fresh suspension was incubated for 3 hours in a shaking incubator (as above) in order to obtain mid-logarithmic phase bacteria. Bacteria were pelleted through centrifugation at 7,500 rpm for 10 mins. Broth supernatant was removed and bacteria suspended in 10 ml Phosphate Buffered Saline (PBS). These steps were repeated a further two times. The density of the suspension was checked by measuring absorbance at 600 nm, using a spectrophotometer with saline as a blank, to confirm the target density at a reading of approximately 0.100, consistent with a bacterial density of 2.5×10^7 CFU/ml. The suspension was placed into a rack placed into a lockable transport box with an ice brick to maintain refrigeration during transport, followed by storage in cool room upon arrival at the mouse skin infection laboratory. Final suspension was mixed thoroughly before inoculating the skin wounds created in mice. […] Eyes of each anaesthetised mouse were covered with veterinary eye lubricant in order to prevent corneal dehydration. Each mouse removed from induction chamber and placed onto surgical area, in front of individual aesthetic nose cone. While under anaesthesia each mouse was monitored for assessment of depth of anaesthesia (response to pain, blink reflex, skeletal muscle tone) and respiratory and cardiac function. Back skin hair was shaved from surgical area with mechanical clippers. […] Once the iodine solution was dry, a subcutaneous injection of the nonsteroidal anti-inflammatory agent meloxicam was administered. Dorsal skin was pinched gently to allow creation of a circular full-thickness wound using ear punch/biopsy punch. […] Once the bacterial suspension was dry, mice were placed into individual recovery boxes labelled with the mouse number. The time of inoculation was recorded. Initial body weights of each mouse were recorded on the appropriate score sheet. Mice recovered to full consciousness within 5 minutes. Recovered mice were returned to individual housing and monitored hourly for post-surgical or anaesthetic complications. […] Each ointment container was weighted prior to administration and the weight recorded. Each mouse was carefully restrained. […] The weight of the ointment container post-administration was recorded. […] At the end of the 7 day skin wound assessment period, all test mice were euthanased prior to wound collection for post mortem examination. The skin wound was dissected from the dorsum of each mouse. The sample was placed in a sample tube and weighed before 1 ml PBS and sterile tissue homogenisation beads were added. […]

S. aureus ATCC 29213 [5] = conditions: Staphylococcus aureus ATCC 29213; CLSI-established; cited from earlier work
S. aureus ATCC 29213 [6] = test: MIC testing (CLSI M07-A8, MHB II), Example 2; assay type: cell-based; conditions: ATCC29213, Staphylococcus aureus ATCC 29213
[7] = tested on: protein synthesis in S. aureus ATCC 29213; test: Macromolecular synthesis assay: protein synthesis ([3H] leucine); assay type: cell-based, Staphylococcus aureus; conditions: 8 fold the MIC (2 μg/mL)
Experimental: Cells were grown at 35° C. overnight on Trypticase Soy agar. A colony from the plate was used to inoculate 10 ml of Mueller Hinton broth II (MHBII), and the culture was grown to early exponential growth phase (OD600==0.2 to 0.3) while incubating in a shaker at 35° C. and 200 rpm.
When cells reached early exponential phase, 100 μL of culture was added to triplicate wells containing various concentrations of test compound or control antibiotics (5 μL) at 20× the final concentration in 100% DMSO. A 5% DMSO treated culture served as the “no drug” control for all experiments. Cells were added in MHBII at 105% to account for the volume of drug added to each reaction or in M9 minimal medium for protein synthesis reactions. Following 15 min incubation at room temperature, either [^3H] thymidine (DNA synthesis), [^3H] uridine (RNA synthesis) or [^3H] leucine (protein synthesis) was added at 0.5-1.0 μCi per reaction, depending on the experiment. Reactions were allowed to proceed at room temperature for 15-30 min and then stopped by adding 12 μL of cold 5% trichloroacetic acid (TCA) or 5% TCA/2% casamino acids (protein synthesis only). […] After washing three times with 5 ml of cold 5% TCA, the filters were rinsed two times with 5 mL 100% ethanol, allowed to dry, and then counted using a Beckman LS3801 liquid scintillation counter.

Compound: CN[C@H](CC(C)C)C(=O)N[C@H]1C(=O)N[C@@H](CC(N)=O)C(=O)N[C@H]2C(=O)N[C@H]3C(=O)N[C@H](C(=O)N[C@H](C(=O)O)c4cc(O)cc(O)c4-c4cc3ccc4O)[C@H](O[C@H]3C[C@](C)(N)[C@@H](O)[C@H](C)O3)c3ccc(c(Cl)c3)Oc3cc2cc(c3O[C@@H]2O[C@H](CO)[C@@H](O)[C@H](O)[C@H]2O[C@H]2C[C@](C)(NCc3ccc(-c4ccc(Cl)cc4)cc3)[C@@H](O)[C@H](C)O2)Oc2ccc(cc2Cl)[C@H]1O [oritavancin]
reduction in viable count (MRSA [1]): 3 log10

MIC (μg/ml) at 24 hours, VRE 1 (VRE; VRE 1, 24 hours, duplicate lines per compound): 8 µg/mL
MIC (μg/ml) at 24 hours, VRE 2 (VRE; VRE 2, 24 hours, duplicate lines per compound): 8 µg/mL
MIC (μg/ml) at 24 hours, MRSA 1 (MRSA [2]; MRSA 1, 24 hours, duplicate lines per compound): 8 µg/mL
MIC (μg/ml) at 24 hours, MRSA 2 (MRSA [2]; MRSA 2, 24 hours, duplicate lines per compound): 4 µg/mL
MIC (μg/ml) at 24 hours, P. aeruginosa (Pseudomonas aeruginosa): >128 µg/mL
release profile from Formulation B [3]: acceptable release profile
MIC (μg/ml) at 24 hours, E. coli (Escherichia coli): >128 µg/mL
Compound: CC(C)(C)c1ccc(C=NNC(=N)NN=Cc2ccc(C(C)(C)C)cc2)cc1.Cl [NCL099]
activity against VRE among analogues (VRE; MIC testing, two VRE strains): greatest activity
VRE (VRE; bioassay ranking, VRE): 8 µg/mL
activity against MRSA among analogues (MRSA [2]; MIC testing, two MRSA strains): greatest activity
MRSA (MRSA [2]; bioassay ranking, MRSA): 6 µg/mL
M + R [4]: 7 µg/mL
mean colony count per g of tissue, log10 (Staphylococcus aureus; mice, Formulation B 20 mg/g topically every 12 hours, vehicle 6.77): 3.12 log10
mean colony count per g of tissue (Staphylococcus aureus; mice, Formulation B 20 mg/g topically every 12 hours, vehicle 5,888,436): 1,318
% reduction (of colony forming units per gram of tissue versus vehicle) (Staphylococcus aureus; mouse skin wound infected with Staphylococcus aureus, topical ointment (Formulation B, 20 mg/g) every 12 hours, end of 7 day period, relative to vehicle group): 99.98%
Log10 (CFU/g): colony forming units per gram of tissue (Staphylococcus aureus; mouse skin wound infected with Staphylococcus aureus, topical ointment (Formulation B, 20 mg/g) every 12 hours, wound tissue at end of 7 day period, group mean): 3.12 Log10 (CFU/g)

MIC (S. aureus ATCC 29213 [6]): 4 µg/mL (≈ 11.9 µM)
Compound: CC(=O)NC[C@H]1CN(c2ccc(N3CCOCC3)c(F)c2)C(=O)O1 [Linezolid]
Quality control range for linezolid (MIC) (S. aureus ATCC 29213 [5]): 1 to 4 µg/mL
inhibition of protein synthesis [7]: approximately 61%
